In patent publication US20060116316A1, “Heterocyclic inhibitors of IRES-mediated translation and methods of use thereof” (priority 2004, published 2006):
Where a SMILES comes first, the peptide text is derived from it.

Tested on: HCV IRES
Test: HCV IRES reporter FACS assay (GFP expression ratio, intein-expressed cyclic peptides)
Format: cell-based, Hepatitis C virus
Settings: ratio at least 1.20 = significant activity
Text: [The source words this procedure for another variant and says it was used here with some conditions changed.] Cells producing libraries of cyclic 3-mers and 4-mers (i.e., libraries of cyclic peptides that contain 3 or 4 amino acid residues) were constructed using methods identical to those of Kinsella et al (J Biol. Chem. 2002 277:37512-8), except different oligonucleotides were used for library construction. Clones from this library were screened in an assay shown in FIG. 2 to identify IRES-inhibitory compounds.
In summary, separate cyclic 3-mer and cyclic 4-mer libraries were constructed such that each peptide of the library contained a fixed Ser, Thr or Cys residue (at position 1) and the remaining residues were randomized. For library construction, degenerate oligonucleotides of sequence 5′-[…](AGC/ACC/TGC)(NNK)2 or 3 TGCATCAGCGGCGACAG-3′ were annealed to the primer 5′-[…]-3′ and extended using the Expand PCR kit (Roche Molecular Biochemicals). The double-stranded DNA insert was digested and inserted into the BclI/DrdI sites of DnaBO-e-BFP (ACUC). The plasmid libraries were electroporated into ElectroMAX DH 10B competent E. coli (Invitrogen) for amplification on LB+amp agar medium. […] Expression of the intein is detected by detecting BFP expression. Expression of the intein (and the cyclic peptide produced by the intein) is suppressible by addition of exogenous doxycycline. The amino acid sequence of the junctions of the intein scaffold used in making the 3-mer library is Val-His-Asn-X3 or 4-Cys-Ile-Ser, where X3 or 4 are three or four contiguous amino acids.
Infectious retroviral particles were produced by transfection of 15 µg of each library (as described in Swift et al, (1999). Current Protocols in Immunology Vol. 10.17C, pp. 1-17, Freeman, N.Y.) into approximately 5×10^6 Phoenix-A packaging cells. Each resulting library of retroviral particles was then used to infect 5×10^6 BJAB-S3A11 reporter cells and a FACS based selection was carried out to isolate cells with reduced HCV-IRES reporter output.
In detail, referring to FIG. 2, the cells used in the assay contained an IRES-dependent reporter system. […]. Also present in the cells is a control reporter system for assaying the activity of 5′ cap-dependent translation (the mechanism by which most cellular proteins are normally translated). The control reporter system contains a CMV promoter that drives the transcription of an RNA containing 5′ cap-dependent UTR, operably linked to an RNA encoding RFP (red fluorescent protein). Translation of RFP is dependent on the activity of the 5′ cap-dependent UTR.
Cells containing both the cyclic compound library and the reporter systems described above were first screened for survival upon exposure to diptheria toxin, and then screened by FACS to identify cells that had reduced GFP expression, as compared to RFP expression. Cells were expanded and replica-plated and grown in the presence or absence of dox (100 ng/ml) for four days. Plates were stimulated with IL-4 and GFP expression (relative to RFP) was monitored by flow cytometry. The IRES-inhibitory activity of a peptide is evaluated by calculating the ratio of the geometric mean of GFP expression of peptide positive cells (“peptide pos+” cells i.e., cells not contacted with dox) to the geometric mean of GFP expression of peptide negative cells (“peptide pos−” cells i.e., cells contacted with dox).
Cyclic peptides assigned higher scores have a greater IRES-inhibitory activity.
The number shown in parentheses after each of the amino acid sequences is the IRES-inhibitory activity ratio, as discussed above.

[1] = 3-mers from mutant intein scaffold, junction Val-His-Asn-X1X2X3-Trp-Ile-Ser
[2] = 3-mers from mutant intein scaffold, junction Val-His-Tyr-X1X2X3-Cys-Ile-Ser
[3] = BJAB-S3A11 reporter cells, +/- dox 100 ng/ml four days, library intein junction Val-His-Asn-X1X2X3-Cys-Ile-Ser
[4] = 4-mers from mutant intein scaffold, junction Val-His-Asn-X1X2X3X4-Cys-Ser

In the case of `O=C1N[C@@H](CO)C(=O)N2CCC[C@H]2C(=O)N[C@H]1Cc1c[nH]c2ccccc12` [cyclo-SPW, cyclo[SPW]] (cyclo(Pro-Trp-Ser)), the “IRES-inhibitory activity ratio (geometric mean GFP expression, peptide positive cells / peptide negative cells)” value [1] is reported as 2.28.
In the case of `NC(=O)CC[C@@H]1NC(=O)[C@H](CO)NC(=O)[C@H](Cc2c[nH]c3ccccc23)NC1=O` [cyclo-SQW, cyclo[SQW]] (cyclo(Gln-Trp-Ser)), the “IRES-inhibitory activity ratio (geometric mean GFP expression, peptide positive cells / peptide negative cells)” value [1] is reported as 2.20.
With `N=C(N)NCCC[C@@H]1NC(=O)[C@H](CO)NC(=O)[C@H](Cc2c[nH]c3ccccc23)NC1=O` [cyclo-SRW, cyclo[SRW]] (cyclo(Arg-Trp-Ser)) the “IRES-inhibitory activity ratio (geometric mean GFP expression, peptide positive cells / peptide negative cells)” value [1] was 2.14.
With `O=C1N[C@@H](Cc2c[nH]c3ccccc23)C(=O)N[C@@H](CO)C(=O)N[C@H]1CO` [cyclo-SSW, cyclo[SSW]] (cyclo(Ser-Ser-Trp)) the “IRES-inhibitory activity ratio (geometric mean GFP expression, peptide positive cells / peptide negative cells)” value [1] was 2.05.
With `CC(C)[C@@H]1NC(=O)[C@H]([C@@H](C)O)NC(=O)[C@H](CO)NC1=O` [cyclo-STV, cyclo[STV]] (cyclo(Ser-Thr-Val)) the “IRES-inhibitory activity ratio (geometric mean GFP expression, peptide positive cells / peptide negative cells)” value [2] was 2.24.
`C[C@@H](O)[C@@H]1NC(=O)[C@H](CO)NC(=O)[C@H](Cc2c[nH]c3ccccc23)NC1=O` [cyclo-STW, cyclo[STW]] (cyclo(Ser-Thr-Trp)) was tested, and the “IRES-inhibitory activity ratio (geometric mean GFP expression, peptide positive cells / peptide negative cells)” value [1] was 2.12.
With `CCC(C)[C@@H]1NC(=O)[C@H](C(C)C)NC(=O)[C@H](CO)NC1=O` (some centres unmarked) [cyclo-SVI, cyclo[SVI]] the “IRES-inhibitory activity ratio (geometric mean GFP expression, peptide positive cells / peptide negative cells)” value [3] was 1.28.
With `CC(C)[C@@H]1NC(=O)[C@H](CO)NC(=O)[C@H](C(C)C)NC1=O` [cyclo-SVV, cyclo[SVV]] (cyclo(Ser-Val-Val)) the “IRES-inhibitory activity ratio (geometric mean GFP expression, peptide positive cells / peptide negative cells)” value [3] was 1.64.
For `CC(C)[C@@H]1NC(=O)[C@H](CO)NC(=O)[C@H](Cc2c[nH]c3ccccc23)NC1=O` [cyclo-SVW, cyclo[SVW]] (cyclo(Ser-Val-Trp)), the “IRES-inhibitory activity ratio (geometric mean GFP expression, peptide positive cells / peptide negative cells)” value [3] was 1.3.
For `O=C1N[C@@H](Cc2c[nH]c3ccccc23)C(=O)N[C@@H](Cc2ccccc2)C(=O)N[C@H]1CO` [cyclo-SWF, cyclo[SWF]] (cyclo(Phe-Ser-Trp)), the “IRES-inhibitory activity ratio (geometric mean GFP expression, peptide positive cells / peptide negative cells)” value [3] was 1.33.
In the case of `C[C@@H]1NC(=O)[C@H](Cc2ccccc2)NC(=O)[C@H](Cc2c[nH]c3ccccc23)NC(=O)[C@H](CO)NC1=O` [cyclo-SWFA, cyclo[SWFA]] (cyclo(ASWF)), the “IRES-inhibitory activity ratio (geometric mean GFP expression, peptide positive cells / peptide negative cells)” value [4] is reported as 1.31.
In the case of `NCCCC[C@@H]1NC(=O)[C@H](Cc2ccccc2)NC(=O)[C@H](Cc2c[nH]c3ccccc23)NC(=O)[C@H](CO)NC1=O` [cyclo-SWFK, cyclo[SWFK]] (cyclo(FKSW)), the “IRES-inhibitory activity ratio (geometric mean GFP expression, peptide positive cells / peptide negative cells)” value [4] is reported as 1.58.
With `CSCC[C@@H]1NC(=O)[C@H](Cc2ccccc2)NC(=O)[C@H](Cc2c[nH]c3ccccc23)NC(=O)[C@H](CO)NC1=O` [cyclo-SWFM, cyclo[SWFM]] (cyclo(FMSW)) the “IRES-inhibitory activity ratio (geometric mean GFP expression, peptide positive cells / peptide negative cells)” value [4] was 1.31.
For `N=C(N)NCCC[C@@H]1NC(=O)[C@H](Cc2ccccc2)NC(=O)[C@H](Cc2c[nH]c3ccccc23)NC(=O)[C@H](CO)NC1=O` [cyclo-SWFR, cyclo[SWFR]] (cyclo(FRSW)), the “IRES-inhibitory activity ratio (geometric mean GFP expression, peptide positive cells / peptide negative cells)” value [4] was 1.44.
In the case of `CCC(C)[C@@H]1NC(=O)[C@H](Cc2c[nH]c3ccccc23)NC(=O)[C@H](CO)NC1=O` (some centres unmarked) [cyclo-SWI, cyclo[SWI]], the “IRES-inhibitory activity ratio (geometric mean GFP expression, peptide positive cells / peptide negative cells)” value [3] is reported as 1.36.
In the case of `CSCC[C@@H]1NC(=O)[C@H](Cc2c[nH]c3ccccc23)NC(=O)[C@H](CO)NC1=O` [cyclo-SWM, cyclo[SWM]] (cyclo(Met-Ser-Trp)), the “IRES-inhibitory activity ratio (geometric mean GFP expression, peptide positive cells / peptide negative cells)” value [3] is reported as 1.22.
`CC(C)[C@@H]1NC(=O)[C@H](Cc2c[nH]c3ccccc23)NC(=O)[C@H](CO)NC1=O` [cyclo-SWV, cyclo[SWV]] (cyclo(Ser-Trp-Val)) was tested, and the “IRES-inhibitory activity ratio (geometric mean GFP expression, peptide positive cells / peptide negative cells)” value [3] was 1.83.
`O=C1N[C@@H](Cc2c[nH]c3ccccc23)C(=O)N[C@@H](Cc2c[nH]c3ccccc23)C(=O)N[C@H]1CO` [cyclo-SWW, cyclo[SWW]] (cyclo(Ser-Trp-Trp)) was tested, and the “IRES-inhibitory activity ratio (geometric mean GFP expression, peptide positive cells / peptide negative cells)” value [3] was 2.37.
In the case of `N=C(N)NCCC[C@@H]1NC(=O)[C@H](Cc2c[nH]c3ccccc23)NC(=O)[C@H](Cc2c[nH]c3ccccc23)NC(=O)[C@H](CO)NC1=O` [cyclo-SWWR, cyclo[SWWR]] (cyclo(RSWW)), the “IRES-inhibitory activity ratio (geometric mean GFP expression, peptide positive cells / peptide negative cells)” value [4] is reported as 2.03.
`O=C1N[C@@H](Cc2c[nH]c3ccccc23)C(=O)N[C@@H](Cc2ccc(O)cc2)C(=O)N[C@H]1CO` [cyclo-SWY, cyclo[SWY]] (cyclo(Ser-Trp-Tyr)) was tested, and the “IRES-inhibitory activity ratio (geometric mean GFP expression, peptide positive cells / peptide negative cells)” value [3] was 1.38.
In the case of `N=C(N)NCCC[C@@H]1NC(=O)[C@H](Cc2ccc(O)cc2)NC(=O)[C@H](Cc2c[nH]c3ccccc23)NC(=O)[C@H](CO)NC1=O` [cyclo-SWYR, cyclo[SWYR]] (cyclo(RSWY)), the “IRES-inhibitory activity ratio (geometric mean GFP expression, peptide positive cells / peptide negative cells)” value [4] is reported as 1.49.
In the case of `CC(C)[C@@H]1NC(=O)[C@H](Cc2ccc(O)cc2)NC(=O)[C@H](CO)NC1=O` [cyclo-SYV, cyclo[SYV]] (cyclo(Ser-Tyr-Val)), the “IRES-inhibitory activity ratio (geometric mean GFP expression, peptide positive cells / peptide negative cells)” value [3] is reported as 1.4.
`O=C1N[C@@H](Cc2ccc(O)cc2)C(=O)N[C@@H](Cc2c[nH]c3ccccc23)C(=O)N[C@H]1CO` [cyclo-SYW, cyclo[SYW]] (cyclo(Ser-Tyr-Trp)) was tested, and the “IRES-inhibitory activity ratio (geometric mean GFP expression, peptide positive cells / peptide negative cells)” value [3] was 1.64.
For `CC(C)[C@@H]1NC(=O)[C@H](C)NC(=O)[C@H]([C@@H](C)O)NC1=O` [cyclo-TAV, cyclo[TAV]] (cyclo(Ala-Val-Thr)), the “IRES-inhibitory activity ratio (geometric mean GFP expression, peptide positive cells / peptide negative cells)” value [2] was 2.00.
With `C[C@@H]1NC(=O)[C@H]([C@@H](C)O)NC(=O)[C@H](Cc2c[nH]c3ccccc23)NC1=O` [cyclo-TAW, cyclo[TAW]] (cyclo(Ala-Trp-Thr)) the “IRES-inhibitory activity ratio (geometric mean GFP expression, peptide positive cells / peptide negative cells)” value [1] was 5.09.
With `C[C@@H](O)[C@@H]1NC(=O)[C@H](Cc2c[nH]c3ccccc23)NC(=O)[C@H](CS)NC1=O` [cyclo-TCW, cyclo[TCW]] (cyclo(Cys-Trp-Thr)) the “IRES-inhibitory activity ratio (geometric mean GFP expression, peptide positive cells / peptide negative cells)” value [3] was 1.48.
For `C[C@@H](O)[C@@H]1NC(=O)[C@H](Cc2c[nH]c3ccccc23)NC(=O)[C@H](Cc2ccccc2)NC1=O` [cyclo-TFW, cyclo[TFW]] (cyclo(Phe-Trp-Thr)), the “IRES-inhibitory activity ratio (geometric mean GFP expression, peptide positive cells / peptide negative cells)” value [3] was 1.75.
`C[C@@H](O)[C@@H]1NC(=O)[C@H](Cc2c[nH]c3ccccc23)NC(=O)[C@H](Cc2cnc[nH]2)NC1=O` [cyclo-THW, cyclo[THW]] (cyclo(His-Trp-Thr)) was tested, and the “IRES-inhibitory activity ratio (geometric mean GFP expression, peptide positive cells / peptide negative cells)” value [3] was 1.49.
In the case of `CC(C)C[C@@H]1NC(=O)[C@H]([C@@H](C)O)NC(=O)[C@H](Cc2c[nH]c3ccccc23)NC1=O` [cyclo-TLW, cyclo[TLW]] (cyclo(Leu-Trp-Thr)), the “IRES-inhibitory activity ratio (geometric mean GFP expression, peptide positive cells / peptide negative cells)” value [3] is reported as 1.2.
